Where a SMILES comes first, the peptide text is derived from it. Bridges are numbered along the chain shown (N, C = ends). [ ]: non-standard residue; d: D form. The star is where a group is joined. hPhe(3-Cl-4-CF3) = N[C@@H](CCc1ccc(C(F)(F)F)c(Cl)c1)C(=O)O; NPrPhe(4-CF3) = CCCN[C@@H](Cc1ccc(C(F)(F)F)cc1)C(=O)O; NMeGly(cPent) = CN[C@H](C(=O)O)C1CCCC1; Ac4c(3,3-Me2) = CC1(C)CC(N)(C(=O)O)C1; NMeD = CN[C@@H](CC(=O)O)C(=O)O; NMeL = CN[C@@H](CC(C)C)C(=O)O; Morpholide = C1CN(*)CCO1; Sar = CNCC(=O)O; Propyl = CCC*
Legend:
[1] = biological target: GDP-bound HRAS wild-type protein (Homo sapiens, UniProt P01112); test: Binding to HRAS by surface plasmon resonance (SPR), Single Cycle Kinetics; settings: for HRAS/KRAS (ratio of KD value with respect to GDP-bound HRAS wild-type protein to KD value with respect to KRAS): class symbols
[2] = biological target: GDP-bound NRAS wild-type protein (Homo sapiens, UniProt P01111); test: Binding to NRAS by surface plasmon resonance (SPR), Single Cycle Kinetics; settings: for NRAS/KRAS (ratio of KD value with respect to GDP-bound NRAS wild-type protein to KD value with respect to KRAS): class symbols
[3] = KD ratio, GDP-bound HRAS wild-type vs GDP-bound KRAS wild-type, SPR
[4] = KD ratio, GDP-bound NRAS wild-type vs GDP-bound KRAS wild-type, SPR

Sequence of GDP-bound HRAS wild-type protein (P01112 whole entry): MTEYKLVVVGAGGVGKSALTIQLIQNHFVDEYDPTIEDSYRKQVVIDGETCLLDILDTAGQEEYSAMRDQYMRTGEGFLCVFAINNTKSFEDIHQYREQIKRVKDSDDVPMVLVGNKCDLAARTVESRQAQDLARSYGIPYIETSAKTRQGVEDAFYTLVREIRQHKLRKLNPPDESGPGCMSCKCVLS
Sequence of GDP-bound NRAS wild-type protein (P01111 whole entry): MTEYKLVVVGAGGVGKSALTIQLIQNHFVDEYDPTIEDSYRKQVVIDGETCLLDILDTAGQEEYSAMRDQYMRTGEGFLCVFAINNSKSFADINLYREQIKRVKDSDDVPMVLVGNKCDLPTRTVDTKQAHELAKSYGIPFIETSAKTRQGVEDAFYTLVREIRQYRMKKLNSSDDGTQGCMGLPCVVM

SMILES | HRAS/KRAS (ratio of KD value with respect to GDP-bound HRAS wild-type protein to KD value with respect to KRAS) [1] | NRAS/KRAS (ratio of KD value with respect to GDP-bound NRAS wild-type protein to KD value with respect to KRAS) [2] | further results
CCC[C@H]1C(=O)N[C@@H]([C@@H](C)CC)C(=O)N(C2CC2)CC(=O)N(C)[C@H]2C/C=C\CCN(C2=O)[C@@H](Cc2ccc(C)cc2)C(=O)N(C)CC(=O)N[C@@H](CCc2cc(F)c(C(F)(F)F)c(F)c2)C(=O)N2C[C@H](OC(C)C)C[C@H]2C(=O)NC2(CC(C)(C)C2)C(=O)N(C)[C@@H](C2CCCC2)C(=O)N(C)[C@H](C(=O)N(C)C)CC(=O)N1C [PP2570] | A (a compound having 10 or more and less than 20 is denoted as A) | A (a compound having 10 or more and less than 20 is denoted as A) | 
CCO[C@@H]1C[C@H]2C(=O)NC3(CCC3)C(=O)N(C)[C@@H](C3CCCC3)C(=O)N(C)[C@H](C(=O)N(CC)CC)CC(=O)N(C)[C@@H](CC)C(=O)N[C@@H]([C@@H](C)CC)C(=O)N(C)CC(=O)N(C)[C@H]3C/C=C\CCN(C3=O)[C@@H](Cc3ccc(C(F)(F)F)cc3)C(=O)N(C)CC(=O)N[C@@H](CCc3cc(F)c(C(F)(F)F)c(F)c3)C(=O)N2C1 [PP1305] |  |  | HRAS/KRAS (ratio of KD value for GDP-bound HRAS wild-type protein to KD value for KRAS) ([1]; SPR, KD ratio class): A (a compound having 10 or more and less than 20 is denoted as A); NRAS/KRAS (ratio of KD value for GDP-bound NRAS wild-type protein to KD value for KRAS) ([2]; SPR, KD ratio class): AA (a compound having 20 or more is denoted as AA)
CCC[C@H]1C(=O)N[C@H]([C@@H](C)CC)C(=O)N(C)CC(=O)N(C)[C@H]2C/C=C\CCN(C2=O)[C@@H](Cc2ccc(C)cc2)C(=O)N(C)CC(=O)N[C@@H](CCc2cc(F)c(C(F)F)c(F)c2)C(=O)N2C[C@H](OCC)C[C@H]2C(=O)NC2(CC(C)(C)C2)C(=O)N(C)[C@@H](C(CC)CC)C(=O)N(C)[C@H](C(=O)N(C)C)CC(=O)N1C (stereo in doubt) [PP2783] | A (a compound having 10 or more and less than 20 is denoted as A) | A (a compound having 10 or more and less than 20 is denoted as A) | 
CC[C@H](C)[C@@H]1NC(=O)[C@H](COC)N(C)C(=O)C[C@@H](C(=O)N2CCCCC2)N(C)C(=O)[C@H](C2CCCC2)N(C)C(=O)C2(CC(C)(C)C2)NC(=O)[C@@H]2C[C@@H](OC3CCC3)CN2C(=O)[C@H](CCc2cc(F)c(C(F)(F)F)c(F)c2)NC(=O)CN(C)C(=O)[C@H](Cc2ccc(C(F)(F)F)cc2)N2CC/C=C\C[C@@H](C2=O)N(C)C(=O)CN(C)C1=O [PP2664] | B (a compound having 3 or more and less than 10 is denoted as B) | A (a compound having 10 or more and less than 20 is denoted as A) | 
CCC(CC)[C@H]1C(=O)N(C)[C@H](C(=O)N(C)C)CC(=O)N(C)[C@@H](COC)C(=O)N[C@@H]([C@@H](C)CC)C(=O)N(C2CC2)CC(=O)N(C)[C@H]2C/C=C\CCN(C2=O)[C@@H](Cc2ccc(C(F)F)cc2)C(=O)N(C)CC(=O)N[C@@H](CCc2cc(F)c(C(F)(F)F)c(F)c2)C(=O)N2C[C@H](OC3CCCC3)C[C@H]2C(=O)NC2(CC(C)(C)C2)C(=O)N1C [PP2633] | A (a compound having 10 or more and less than 20 is denoted as A) | AA (a compound having 20 or more is denoted as AA) | 
CCO[C@@H]1C[C@H]2C(=O)NC3(CCC3)C(=O)N(C)[C@@H](C3CCCC3)C(=O)N(C)[C@H](C(=O)N3CCOCC3)CC(=O)N(C)[C@@H](Cc3ccc(C#N)cc3)C(=O)N[C@@H]([C@@H](C)CC)C(=O)N(C)CC(=O)N(C)[C@H]3CCCCCN(C3=O)[C@@H](Cc3ccc(C(F)(F)F)cc3)C(=O)N(C)CC(=O)N[C@@H](CCc3cc(F)c(C(F)(F)F)c(F)c3)C(=O)N2C1 [PP1167] |  |  | HRAS/KRAS (ratio of KD value with respect to HRAS to KD value with respect to KRAS) [1, 3]: B (a compound having 3 or more and less than 10 is denoted as B); NRAS/KRAS (ratio of KD value with respect to NRAS to KD value with respect to KRAS) [2, 4]: B (a compound having 3 or more and less than 10 is denoted as B)
CCCO[C@H](C)[C@@H]1NC(=O)[C@H](CC(C)C)N(C)C(=O)C[C@@H](C(=O)N2CCOCC2)N(C)C(=O)[C@H](C2CCCC2)N(C)C(=O)C2(CC(C)(C)C2)NC(=O)[C@@H]2CCCN2C(=O)[C@H](CCc2ccc(C(F)(F)F)c(Cl)c2)NC(=O)CN(C)C(=O)[C@H](Cc2ccc(C(F)(F)F)cc2)N(CCC)C(=O)CN(C)C(=O)CN(C)C1=O [PP1965] ([NMeL]T(Propyl)[Sar][Sar][NPrPhe(4-CF3)][Sar][hPhe(3-Cl-4-CF3)]P[Ac4c(3,3-Me2)][NMeGly(cPent)][NMeD]-Morpholide; lactam N-11) |  |  | HRAS/KRAS (ratio of KD value for HRAS to KD value for KRAS) [1, 3]: B (a compound having 3 or more and less than 10 is denoted as B); NRAS/KRAS (ratio of KD value for NRAS to KD value for KRAS) [2, 4]: B (a compound having 3 or more and less than 10 is denoted as B)

Source: patent publication US20250230193A1, “CYCLIC COMPOUND HAVING SELECTIVE KRAS INHIBITORY EFFECT ON HRAS AND NRAS” (CHUGAI SEIYAKU KABUSHIKI KAISHA, priority 2022, published 2025)
